{
  "source": "paper PMC7313430",
  "about": "“Heme-Dependent ER Stress Apoptosis: A Mechanism for the Selective Toxicity of the Dihydroartemisinin, NSC735847, in Colorectal Cancer Cells” (Frontiers in Oncology, 2020)",
  "type_in_all_cases": "cell-based, human",
  "key": {"[1]": {"system": "HT29 cells", "assay": "MTS cell viability assay, colon cancer cells HT29", "experimental": "(§1) The human colon cancer cell lines HT29 and HCT116 were cultured in McCoy's 5A medium (Sigma Aldrich, St. Louis, MO) containing 10% heat-inactivated fetal bovine serum (FBS), penicillin (100 units/ml), and streptomycin (100 μg/ml). The non-tumorigenic colon cell line, FHC, was cultured in DMEM: F12 (1:1) medium supplemented with 10% heat inactivated FBS, 25 mM HEPES (Thermo Fisher Scientific Inc., IL), 10 ng/ml cholera toxin (Sigma Aldrich, St. Louis, MO), 0.005 mg/ml insulin (Thermo Fisher Scientific Inc., IL), 0.005 mg/ml, transferrin (Sigma Aldrich, St. Louis, MO), 100 ng/ml hydrocortisone (Sigma Aldrich, St. Louis, MO), 20 ng/mL human recombinant epidermal growth factor (Thermo Fisher Scientific Inc., IL), 100 units/ml penicillin, and 100 μg/ml streptomycin.\n(§2) Cells were cultured in 96-well-plates for 48 h before treatment. Serum-free media containing different agents was added to the cells at the concentration and time period described in the figure legend. MTS reagent (Promega, Madison, WI) was then added to each well and the absorbance was measured at 495 nm as directed by the manufacturer. In the presence of MTS reagent, the absorbance reading is proportional to the number of viable cells. The half-maximal inhibitory concentration (IC50) of the tested compounds is the concentration that reduces the viability of cells by 50%. IC50 was calculated after 24 h of treatment ([30], [31]) as described previously ([32]–[34]) from dose-response curves (log drug concentration vs. percentage viability from untreated cells) generated by non-linear regression analysis with GraphPad Prism 5 software (GraphPad Software, San Diego, California)."}, "[2]": {"system": "HCT116 cells", "assay": "MTS cell viability assay, colon cancer cells HCT116", "experimental": "as §1, §2"}, "[3]": {"system": "caspase 3/7 activity in FHC cells", "assay": "Caspase-Glo 3/7 activity assay in FHC", "conditions": "16 h, 1.25-10 μM", "experimental": "The cells were plated in white-walled 96-well-plates and then they were cultured at 37°C for 48 h. Serum-free culture medium containing the appropriate concentration of different agents was added to the cells for the indicated period of time. Caspase-Glo 3/7 reagent (Promega, Madison, WI) was added to each well and luminescence was detected as directed by the manufacturer. The Caspase-Glo 3/7 kit measures the activity of the executioner caspases 3 and 7 using the luminogenic substrate (Z-DEVD-aminoluciferin) as substrate."}, "[4]": {"system": "reactive oxygen species in HT29 cells", "assay": "Oxidative stress measurement with CM-H2DCFDA (DCF)", "conditions": "HT29, 10 μM, 8 h", "experimental": "Oxidative stress was measured in cultured cells by using the probe, chloromethyl-2′,7′ dichlorodihydrofluorescein diacetate (CM-H2DCFDA or DCF) purchased from Life Technologies (Grand Island, NY). […] The cells were loaded with 5 μM DCF in phenol red-free, serum-free medium for 30 min and then the cells were treated with the appropriate drug for the indicated period of time. The cells were then trypsinized and resuspended in serum-containing, phenol red-free medium. The fluorescence of DCF was measured using an Accuri C6 flow cytometer (BD Accuri Cytometers, Ann Arbor, MI) at an excitation wavelength of 488 and emission of 533 ± 30 nm."}, "[5]": {"system": "FHC cells", "assay": "TUNEL assay in FHC", "conditions": "5 or 10 μM, 16 h", "experimental": "(§3) HT29, HCT116, and FHC cells were cultured in chamber slides and treated with 5 μM NSC735847, 10 μM NSC735847, or vehicle (0.1% DMSO). The cells were then washed with PBS and fixed in 4% paraformaldehyde before detection of double stranded DNA breaks that are characteristic of apoptosis. Terminal deoxynucleotidyl transferase dUTP nick end labeling (TUNEL) assays were performed as described by the manufacturer (in situ Cell Death Detection Kit; Roche; Indianapolis, IN). Briefly, fixed cells were incubated in permeabilization solution (0.1% Triton X-100 in 0.1% sodium citrate) for 2 min on ice. The slides were rinsed twice with PBS, 50 μL TUNEL reaction mixture was added, and then the samples were incubated for 1 h at 37°C in the dark. The slides were overlayed with antifade mounting medium containing DAPI and then visualized using a Zeiss LSM 700 confocal microscope system (Carl Zeiss Microscopy, LLC, White Plains, NY)."}, "[6]": {"system": "P-PERK, P-eIF2α, CHOP10, PARP, caspase-3, ferritin in HT29 cells", "assay": "Western blot of ER stress and apoptosis proteins in HT29", "experimental": "(§4) Western blot analysis was conducted as described previously ([35]). Briefly, the cells were cultured in 100 mm dishes for 48 h before treatment. The cells were then treated as described in the figure legends. For vehicle-treated samples, DMSO was added to serum-free culture medium at a maximum concentration of 0.1% (v/v). After experimentation, the cells were washed twice with phosphate buffer saline (PBS) and then 100 μl of Triton lysis buffer [25 mM HEPES, 100 mM NaCl, 1 mM EDTA, 10% (v/v) glycerol, 1% (v/v) Triton X-100], containing protease and […] inhibitors, was added to the cells. Protein concentrations were determined by using BCA reagents (Thermo Fisher Scientific Inc., IL). Equal concentrations of each sample were loaded onto SDS–PAGE gels and protein bands transferred to nitrocellulose membranes using semi-dry transfer cells (TRANS-BLOTSD; Bio-Rad Laboratories, Hercules, CA). The membranes were incubated for 2 h at room temperature in Odyssey blocking buffer (LI-COR Biosciences, Lincoln, NE). Membranes were then incubated overnight at 4C with primary antibody followed by 1 h of incubation at room temperature with secondary antibody. All primary antibodies were used at a dilution of 1:1,000 except anti-GAPDH and anti-CHOP10 antibodies which were used at 1:10,000 and 1:500 dilutions, respectively. All secondary antibodies were used at a dilution of 1:15,000. Protein bands were visualized using Odyssey® CLx digital fluorescence imaging system (LI-COR, Lincoln, Nebraska). Band intensities were quantified by using ImageJ software ([36])."}, "[7]": {"system": "PERK, eIF2a, CHOP10, PARP, caspase 3 in FHC cells", "assay": "Western blot of ER stress and apoptosis proteins in FHC", "conditions": "10 μM, 1-16 h", "experimental": "as §4, with “All primary antibodies were used at a dilution of 1:1,000 except anti-GAPDH and anti-CHOP10 antibodies which were used at 1:10,000 and 1:500 dilutions, respectively. All secondary antibodies were used at a dilution of 1:15,000.” left out"}, "[8]": {"system": "HCT116 cells", "assay": "TUNEL assay in HCT116", "conditions": "5 or 10 μM, 16 h", "experimental": "as §3"}, "[9]": {"conditions": "MTS, 24 h, single agents or combinations"}},
  "data": [
    {"compound": "CC1CCC2C(C)C(OCC(COC3OC4OC5(C)CCC6C(C)CCC(C3C)C46OO5)=NO)OC3OC4(C)CCC1C32OO4", "note": "(centres unmarked) [compound (3)]", "values": [
      {"measurement": "IC50", "setting": "[1]; Homo sapiens, HT-29, MTS viability, 24 h treatment", "value": 11, "unit": "µM"},
      {"measurement": "cell death / survival of HT29 cells", "setting": "[1]; [9]", "value": "induced death in a concentration-dependent manner"},
      {"measurement": "IC50", "setting": "[2]; Homo sapiens, HCT-116, MTS viability, 24 h treatment", "value": 11.8, "unit": "µM"},
      {"measurement": "cell death / survival of HCT116 cells", "setting": "[2]; [9]", "value": "induced death in a concentration-dependent manner"},
      {"measurement": "caspase 3/7 activity in FHC", "setting": "[3]", "value": "not in FHC cells"},
      {"measurement": "intracellular oxidative stress (DCF fluorescence)", "setting": "[4]", "value": "increased the intracellular oxidative stress levels"},
      {"measurement": "TUNEL positive cells in FHC", "setting": "[5]", "value": "absent"},
      {"measurement": "CHOP10 expression", "setting": "[6]; HT29, 10 μM, 6 and 8 h", "value": "marked increase"},
      {"measurement": "cleavage of PARP", "setting": "[6]; HT29, 10 μM, 8 and 16 h", "value": "stimulated the cleavage"},
      {"measurement": "cleavage of caspase-3", "setting": "[6]; HT29, 10 μM, 8 and 16 h", "value": "stimulated the cleavage"},
      {"measurement": "phosphorylation of PERK, increase compared to vehicle-treated cells", "setting": "[6]; HT-29, 10 μM, 1 and 2 h", "value": "more than 7 fold"},
      {"measurement": "phosphorylation of eIF2α, increase compared to vehicle-treated cells", "setting": "[6]; HT-29, 10 μM, 1 and 2 h", "value": "more than 7 fold"},
      {"measurement": "activation of PERK, eIF2a, CHOP10, PARP, caspase 3 in FHC", "setting": "[7]", "value": "did not increase the activation"},
      {"measurement": "TUNEL positive cells in HCT-116", "setting": "[8]", "value": "increased the quantity of TUNEL positive cells"}
    ]}
  ]
}
